The values that follow come from patent US20190218226A1, “PRODRUGS OF ANTICANCER AGENTS INDOTECAN AND INDIMITECAN” (Purdue Research Foundation, priority 2016, published 2019).

Where two headings read alike, the source gives them in different places. A value given as a limit tells only on which side of the number the result lay.

In one data set the test system is UACC-62. The experiment in a line: NCI60 antiproliferative screen, melanoma UACC-62. The note with it: UACC-62, 48 h, sulforhodamine B, read-out: Cytotoxicity (GI50) melanoma UACC-62. The class given is cell-based, human. The protocol: (§1) All of the indenoisoquinolines were tested for antiproliferative activity in the National Cancer Institute's 60 cell line screen (NCI60). The cells were incubated with the tested compounds at 100, 10, 1, 0.1, and 0.01 μM concentrations for 48 h before treatment with sulforhodamine B dye. Optical densities were recorded, and their ratios relative to that of the control were plotted as percentage growth against the log 10 of the tested compound concentrations. The concentration that corresponds to 50% growth inhibition (GI50) is calculated by interpolation between the points located above and below the 50% percentage growth. The mean-graph midpoint (MGM) is an estimated average of the GI50 values derived from the NCI collection of 60 human cancer cell lines, where during the MGM calculation, anticancer agents with GI50 values that are outside the testing range of 0.01-100 μM are arbitrarily assigned the values of 0.01 and 100 μM, respectively. […] Also, the GI50 values of many of the substances vs. individual human cancer cell lines are below the lowest concentration used (0.01 μM) in the standard NCI testing protocol. […] For example, the MGM cytotoxicity values of 9, 15-17, and 19 are all very close to each other, but the Top1 inhibitory activities range from +++(+) to 0.

The next data set has as its system DU-145. Nature of the data set: NCI60 antiproliferative screen, prostate DU-145. The class given is cell-based, human. The note with it: DU-145, 48 h, sulforhodamine B, read-out: Cytotoxicity (GI50) prostate DU-145. The protocol: as §1
Another data set concerns SN12C. The experiment in a line: NCI60 antiproliferative screen, renal SN12C. Format: cell-based, human. The note with it: 48 h, sulforhodamine B, read-out: Cytotoxicity (GI50) renal SN12C. On the procedure: as §1
For the next data set, the system named is HOP-62. The experiment in a line: NCI60 antiproliferative screen, lung HOP-62. Format: cell-based, human. The conditions noted are these: HOP-62, 48 h, sulforhodamine B, read-out: Cytotoxicity (GI50) lung HOP-62. On the procedure:
as §1

Another data set concerns HCT-116. The experiment in a line: NCI60 antiproliferative screen, colon HCT-116. Format: cell-based, human. The conditions noted are these: HCT-116, 48 h, sulforhodamine B, read-out: Cytotoxicity (GI50) Colon HCT-116. The protocol: as §1
The test system of the next data set is SF-539. The experiment in a line: NCI60 antiproliferative screen, CNS SF-539. Format: cell-based, human. The note with it: SF-539, 48 h, sulforhodamine B, read-out: Cytotoxicity (GI50) CNS SF-539. The protocol: as §1
The subject of the next data set is MCF-7. The experiment in a line: NCI60 antiproliferative screen, breast MCF-7. The class given is cell-based, human. The note with it: MCF-7, 48 h, sulforhodamine B, read-out: Cytotoxicity (GI50) breast MCF-7. The protocol: as §1
In a further data set the test system is OVCAR-3. The experiment in a line: NCI60 antiproliferative screen, ovarian OVCAR-3. The class given is cell-based, human. The conditions noted are these: OVCAR-3, 48 h, sulforhodamine B, read-out: Cytotoxicity (GI50) Ovarian OVCAR-3. On the procedure: as §1
Data set [1] deals with all human cancer cell lines successfully tested (NCI60). The experiment in a line: NCI60 mean graph midpoint for growth inhibition. Format: cell-based. The note with it: for mean GI50 across NCI60 cell lines (MGM): all human cancer cell lines successfully tested, ± standard error, read-out: MGM (mean graph midpoint for growth inhibition); for GI50's against various cell lines (range in words) / cytotoxicity relative to parent compound (in words): NCI60. On the procedure: as §1

The target in the next data set is T1, Human recombinant Top1 (Homo sapiens, UniProt P11387).
T1 construct: made in house
T1 sequence (P11387 1-765): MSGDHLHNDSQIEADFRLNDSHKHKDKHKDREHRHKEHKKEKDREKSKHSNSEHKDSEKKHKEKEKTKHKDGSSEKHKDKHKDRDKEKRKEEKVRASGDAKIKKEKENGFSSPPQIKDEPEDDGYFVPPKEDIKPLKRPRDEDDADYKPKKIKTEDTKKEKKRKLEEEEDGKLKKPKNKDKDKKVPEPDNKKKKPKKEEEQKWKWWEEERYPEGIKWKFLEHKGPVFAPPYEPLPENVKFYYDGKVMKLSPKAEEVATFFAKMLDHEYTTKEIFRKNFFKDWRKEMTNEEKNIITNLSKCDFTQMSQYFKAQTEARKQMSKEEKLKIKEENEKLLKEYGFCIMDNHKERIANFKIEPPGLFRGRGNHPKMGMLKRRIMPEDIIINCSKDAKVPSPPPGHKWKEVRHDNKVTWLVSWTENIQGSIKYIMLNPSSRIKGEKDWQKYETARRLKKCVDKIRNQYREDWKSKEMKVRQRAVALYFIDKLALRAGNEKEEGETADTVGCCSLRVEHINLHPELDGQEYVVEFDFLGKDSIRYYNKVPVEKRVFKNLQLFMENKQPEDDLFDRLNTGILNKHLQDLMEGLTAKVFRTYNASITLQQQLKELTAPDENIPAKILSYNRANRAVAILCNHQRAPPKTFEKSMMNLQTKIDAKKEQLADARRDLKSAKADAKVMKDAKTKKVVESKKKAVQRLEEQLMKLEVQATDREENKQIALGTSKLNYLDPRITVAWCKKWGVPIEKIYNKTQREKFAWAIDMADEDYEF
Nature of the data set: Top1-mediated DNA cleavage assay. The class given is biochemical. Further details: key to Top1 inhibitory activity (level): 0, no detectable activity; +, weak activity; ++, similar activity to compound 4; +++, greater activity than 4; ++++, equipotent with 1; ++(+) would be between ++ and +++. The conditions noted are these: for Top 1 Cleavage: graded relative to 1 μM camptothecin; for Top1 inhibitory activity (level): scored relative to compounds 1 and 4. The protocol:
All of the new indenoisoquinoline derivatives were tested in Top1-mediated DNA cleavage assays. For this purpose, a ^32P 3′-end labeled 117-bp DNA fragment was incubated with Top1 at four concentrations of a tested compound. The DNA fragments were separated on 20% PAGE denaturing gels. The Top1 inhibitory activities were assigned on the basis of the visual inspection of the number and intensities of the gel bands corresponding to Top1-mediated DNA cleavage fragments and scored relative to the Top1 inhibitory activity of compounds 1 and 4. Results are expressed in semiquantitative fashion: 0, no detectable activity; +, weak activity; ++, similar activity to compound 4; +++, greater activity than 4; ++++, equipotent with 1. Ambiguous scores (e.g., between two values) are designated with parentheses (e.g., ++(+) would be between ++ and +++). […] After conversion of the hydroxyl to a dimethylcarbamate, the observed Top1 inhibitory activity increased from ++(+) for compound 8 to +++ for compound 10. Introduction of an acetyl group at the 0-2 position yielded compound 11, which was also a Top1 poison with activity at the ++ level. Subsequently, several hydrophobic substituents were attached to the 0-2 position.
Topoisomerase I-Mediated DNA Cleavage Reactions.
Human recombinant Top1 was purified from baculovirus as previously described (Morrell, A., et al., J. Med. Chem. 2007, 50, 2040-2048). DNA cleavage reactions were prepared as previously reported with the exception of the DNA substrate (Strumberg, D., et al., J. Med. Chem. 1999, 42, 446-457). Briefly, a 117-bp DNA oligonucleotide (Integrated DNA Technologies) encompassing the previously identified Top1 cleavage sites in the 161-bp fragment from pBluescript SK(−) phagemid DNA was employed. This 117-bp oligonucleotide contains a single 5′-cytosine overhang, which was 3′-end-labeled by fill-in reaction with [α-^32P]dGTP in React 2 buffer (50 mM Tris-HCl, pH 8.0, […], 50 mM NaCl) with 0.5 unit of DNA polymerase I (Klenow fragment, New England BioLabs). Unincorporated [^32P]dGTP was removed using mini Quick Spin DNA columns (Roche, Indianapolis, Ind.), and the eluate containing the 3′-end-labeled DNA substrate was collected. Approximately 2 nM radiolabeled DNA substrate was incubated with recombinant Top1 in 20 μL of reaction buffer [10 mM Tris-HCl (pH 7.5), 50 mM KCl, 5 mM MgCl2, 0.1 mM EDTA, and 15 μg/mL BSA] at 25° C. for 20 min in the presence of various concentrations of compounds. The reactions were terminated by adding SDS (0.5% final concentration) followed by the addition of two volumes of loading dye (80% formamide, 10 mM sodium hydroxide, 1 mM sodium EDTA, 0.1% xylene cyanol, and 0.1% bromophenol blue). Aliquots of each reaction mixture were subjected to 20% denaturing PAGE. Gels were dried and visualized by using a phosphoimager and ImageQuant software (Molecular Dynamics). For simplicity, cleavage sites were numbered as previously described in the 161-bp fragment.

What is called GI50 is the concentration that inhibits growth by half. One may read the melting point as the temperature of the solid-liquid transition. In turn, `COc1cc2c3c(n(CCCN4CCOCC4)c(=O)c2cc1OC(=O)N(C)C)-c1cc2c(cc1C3=O)OCO2` [Compound 15, 2-Methoxy-6-(3-morpholinopropyl)-5,12-dioxo-6,12-dihydro-5H-[1,3]dioxolo[4′,5′:5,6]indeno[1,2-c]isoquinolin-3-yl Dimethylcarbamate] showed a melting point of 290 to 292 °C. The GI50 in the data set on UACC-62 (Homo sapiens) worked out at 17 nM. Further, the GI50 with DU-145 (Homo sapiens) was determined as 32 nM. Further, in the data set with SN12C (Homo sapiens), the GI50 turned out to be 25 nM. The GI50 with HOP-62 (Homo sapiens) stood at 32 nM. Moreover, the GI50 with HCT-116 (Homo sapiens) stood at 26 nM. Further, the GI50 in the data set with SF-539 (Homo sapiens) is 21 nM. Also, in the data set on MCF-7 (Homo sapiens, MCF7), the GI50 is below 10 nM. The GI50 in the data set with OVCAR-3 (Homo sapiens) is 105 nM. In addition, in [1], the mean GI50 across NCI60 cell lines (MGM) turned out to be 70 ± 28 nM.

Take `COc1cc2c(=O)n(CCCN3CCOCC3)c3c(c2cc1OC(=O)c1ccccc1)C(=O)c1cc2c(cc1-3)OCO2` [Compound 13, 3-Methoxy-6-(3-morpholinopropyl)-5,12-dioxo-6,12-dihydro-5H-[1,3]dioxolo[4′,5′:5,6]indeno[1,2-c]isoquinolin-2-yl Benzoate]: the concentration for 50% growth inhibition (GI50) with UACC-62 was 96 nM; with DU-145 it was 51 nM; with SN12C, 54 nM; in the data set with HOP-62 it was 79 nM; in the data set on HCT-116, 850 nM; in the data set with SF-539 it was 37 nM. Moreover, the GI50 with MCF-7 amounted to 33 nM; in the data set on OVCAR-3, 4570 nM. In addition, at Human recombinant Top1, the “Top1 inhibitory activity (in words)” value is “weak Top1 poisons”. The “Top 1 Cleavage” value at Human recombinant Top1 is “+ (+, between 20 and 50% activities)”. In addition, the “Top1 inhibitory activity (level)” value at Human recombinant Top1 was “+”. Further, in [1], the “GI50's against various cell lines (range in words)” value is listed as “micromolar range”. For the same compound, the “cytotoxicity relative to parent compound (in words)” value in data set [1] was “significantly less cytotoxic than their respective parent compounds”. Besides, the mean GI50 across NCI60 cell lines (MGM) in [1] is 1500 ± 170 nM.

Regarding `COc1cc2c3c(n(CCCN4CCOCC4)c(=O)c2cc1OC(=O)c1ccccc1)-c1cc2c(cc1C3=O)OCO2` [Compound 18, 2-Methoxy-6-(3-morpholinopropyl)-5,12-dioxo-6,12-dihydro-5H-[1,3]dioxolo[4′,5′:5,6]indeno[1,2-c]isoquinolin-3-yl Benzoate], the GI50 with UACC-62 stood at 59 nM; with DU-145, 724 nM; in the data set on SN12C it was 195 nM; in the data set with HOP-62 it was 2140 nM; with HCT-116, 5890 nM; in the data set with SF-539, 135 nM. Also, the 50% growth inhibitory concentration (GI50) worked out at 15 nM with MCF-7 and 30900 nM with OVCAR-3. In addition, on Human recombinant Top1, the “Top1 inhibitory activity (in words)” value is listed as “weak Top1 poisons”. Besides, on Human recombinant Top1, the “Top 1 Cleavage” value was “+ (+, between 20 and 50% activities)”. In addition, the “GI50's against various cell lines (range in words)” value in data set [1] is reported as “micromolar range”. The “cytotoxicity relative to parent compound (in words)” value in data set [1] is listed as “significantly less cytotoxic than their respective parent compounds”. Also, the mean GI50 across NCI60 cell lines (MGM) in data set [1] amounted to 3190 ± 622 nM.

In the case of `COc1cc2c(=O)n(CCCN3CCOCC3)c3c(c2cc1O)C(=O)c1cc2c(cc1-3)OCO2` [Compound 8], the GI50 stood at 282 nM in the data set on UACC-62 (Homo sapiens); 257 nM in the data set with DU-145 (Homo sapiens); 195 nM in the data set with SN12C (Homo sapiens); 257 nM in the data set with HOP-62 (Homo sapiens); 279 nM with HCT-116 (Homo sapiens); 335 nM with SF-539 (Homo sapiens). The GI50 in the data set on MCF-7 (Homo sapiens, MCF7) was 144 nM; in the data set on OVCAR-3 (Homo sapiens) it was 871 nM. In addition, the “Top1 inhibitory activity (level)” value on Human recombinant Top1 is reported as “++(+)”. The mean GI50 across NCI60 cell lines (MGM) in [1] is 412 nM.
